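Cultured in 96-well plates, cells were exposed to test compound for 48 hours across five concentrations. The concentration for 50% growth inhibition is given as GI50.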 The source made the active and inactive calls. No stated cut-off is given here; in the data, active = GI50 up to about 1.1 µM and inactive = higher.
Assays:
Assay in all cases: NCI tumour cell line growth inhibition, 48 h
MDA-MB-231 = system: MDA-MB-231
MDA-N = system: MDA-N
SNB-75 = system: SNB-75
SK-OV-3 = system: SK-OV-3
LOX IMVI = system: LOX IMVI
SF-295 = system: SF-295
DU-145 = system: DU-145
NCI-H460 = system: NCI-H460
RPMI-8226 = system: RPMI-8226
SK-MEL-5 = system: SK-MEL-5
Hs-578T = system: Hs-578T
HCT-15 = system: HCT-15
HCC 2998 = system: HCC 2998
CAKI-1 = system: CAKI-1
SK-MEL-2 = system: SK-MEL-2
786-0 = system: 786-0
K562 = system: K562
OVCAR-4 = system: OVCAR-4
COLO 205 = system: COLO 205
HL-60 = system: HL-60

Structure (SMILES) | GI50 (MDA-MB-231) | GI50 (MDA-N) | GI50 (SNB-75) | GI50 (SK-OV-3) | GI50 (LOX IMVI) | GI50 (SF-295) | GI50 (DU-145) | GI50 (NCI-H460) | GI50 (RPMI-8226) | GI50 (SK-MEL-5) | GI50 (Hs-578T) | GI50 (HCT-15) | GI50 (HCC 2998) | GI50 (CAKI-1) | GI50 (SK-MEL-2) | GI50 (786-0) | GI50 (K562) | GI50 (OVCAR-4) | GI50 (COLO 205) | GI50 (HL-60)
O=S(=O)(c1ccccc1)N1CCN(S(=O)(=O)c2ccccc2)c2ccccc21 | > 100 µM (inactive) | 89.5 µM (inactive) | > 100 µM (inactive) | > 100 µM (inactive) | > 100 µM (inactive) | 81.8 µM (inactive) | > 100 µM (inactive) | > 100 µM (inactive) | > 100 µM (inactive) | 73.3 µM (inactive) | > 100 µM (inactive) | 92.7 µM | > 100 µM (inactive) | > 100 µM (inactive) | > 100 µM (inactive) | > 100 µM (inactive) | 96.4 µM (inactive) | > 100 µM (inactive) | > 100 µM (inactive) | –
NC(=S)Nc1ccc(S(=O)(=O)Nc2ccc(S(N)(=O)=O)cc2)cc1 | > 100 µM (inactive) | > 100 µM (inactive) | – | – | > 100 µM (inactive) | > 100 µM (inactive) | > 100 µM (inactive) | > 100 µM (inactive) | > 100 µM (inactive) | > 100 µM (inactive) | – | > 100 µM | – | > 100 µM (inactive) | > 100 µM (inactive) | > 100 µM (inactive) | > 100 µM (inactive) | > 100 µM (inactive) | > 100 µM (inactive) | > 100 µM (inactive)
COc1cc(OC)cc(Oc2nc3c(N)cc(C(F)(F)F)cc3nc2-c2ccccc2)c1 | 28.9 µM (inactive) | – | 47.9 µM (inactive) | 44.4 µM (inactive) | 20.4 µM (inactive) | 49.5 µM (inactive) | – | 30.2 µM (inactive) | 16.4 µM (inactive) | 37.3 µM (inactive) | 80.4 µM (inactive) | 18.1 µM | 24.3 µM (inactive) | 26.9 µM (inactive) | 20 µM (inactive) | 55.1 µM (inactive) | 2.71 µM (inactive) | 78.9 µM (inactive) | 20.1 µM (inactive) | 16.6 µM (inactive)
CC(C)(CNC(=O)/C(Cl)=C(/Cl)C(=O)O)CNC(=O)/C(Cl)=C(/Cl)C(=O)O | – | > 100 µM (inactive) | > 100 µM (inactive) | > 100 µM (inactive) | 28.8 µM (inactive) | > 100 µM (inactive) | > 100 µM (inactive) | > 100 µM (inactive) | 22.6 µM (inactive) | > 100 µM (inactive) | > 100 µM (inactive) | > 10 µM | > 100 µM (inactive) | > 100 µM (inactive) | > 100 µM (inactive) | > 100 µM (inactive) | 40.1 µM (inactive) | > 100 µM (inactive) | 18.2 µM (inactive) | 34 µM (inactive)
CC(=O)OC12C3C4C1C1C2C3C41OC(C)=O (configuration not stated) | > 100 µM (inactive) | – | > 100 µM (inactive) | > 100 µM (inactive) | > 100 µM (inactive) | > 100 µM (inactive) | > 100 µM (inactive) | > 100 µM (inactive) | > 100 µM (inactive) | > 100 µM (inactive) | – | > 100 µM | > 100 µM (inactive) | > 100 µM (inactive) | > 100 µM (inactive) | > 100 µM (inactive) | > 100 µM (inactive) | > 100 µM (inactive) | > 100 µM (inactive) | > 100 µM (inactive)
CCc1cccc(C(C)C)c1NC(=O)C(=O)C1C(=O)Nc2ccccc2[S+]1[O-] (configuration not stated) | > 100 µM (inactive) | > 100 µM (inactive) | > 100 µM (inactive) | > 100 µM (inactive) | > 100 µM (inactive) | > 100 µM (inactive) | > 100 µM (inactive) | > 100 µM (inactive) | > 100 µM (inactive) | > 100 µM (inactive) | > 100 µM (inactive) | > 100 µM | > 100 µM (inactive) | > 100 µM (inactive) | > 100 µM (inactive) | > 100 µM (inactive) | – | > 100 µM (inactive) | > 100 µM (inactive) | –
COc1cc([C@@H]2c3cc4c(cc3C[C@@H]3COC(=O)C32)OCO4)cc(OC)c1O (some centres not stated) | – | 0.0113 µM (active) | – | 0.0287 µM (active) | 0.0426 µM (active) | 0.0208 µM (active) | 0.0973 µM (active) | 0.032 µM (active) | 0.0269 µM (active) | 0.0221 µM (active) | – | 0.0294 µM | – | 0.0183 µM (active) | – | 0.0299 µM (active) | 0.031 µM (active) | – | 0.0306 µM (active) | 0.0274 µM (active)
CSc1nc2c(c(=O)n1C)N=C(c1ccccc1)[C@H](C(CC(=O)c1ccccc1)c1ccccc1)C(c1ccccc1)N2 (some centres not stated) | > 100 µM (inactive) | > 100 µM (inactive) | 3.12 µM (inactive) | – | > 100 µM (inactive) | > 100 µM (inactive) | > 100 µM (inactive) | 9.2 µM (inactive) | 19 µM (inactive) | > 100 µM (inactive) | – | > 100 µM | > 100 µM (inactive) | > 100 µM (inactive) | > 100 µM (inactive) | > 100 µM (inactive) | 54.5 µM (inactive) | 23.6 µM (inactive) | > 100 µM (inactive) | 5.22 µM (inactive)
CN(C(=O)C1CCCCCC1=O)c1ccccc1Cl (configuration not stated) | > 100 µM (inactive) | – | > 100 µM (inactive) | > 100 µM (inactive) | > 100 µM (inactive) | > 100 µM (inactive) | > 100 µM (inactive) | > 100 µM (inactive) | > 100 µM (inactive) | > 100 µM (inactive) | – | > 100 µM | – | > 100 µM (inactive) | – | > 100 µM (inactive) | – | > 100 µM (inactive) | > 100 µM (inactive) | –
Cc1[nH]c2ncn(N)c(=N)c2c1Cc1ccccc1 | > 100 µM (inactive) | 35.3 µM (inactive) | 42.7 µM (inactive) | > 100 µM (inactive) | 67.1 µM (inactive) | > 100 µM (inactive) | – | – | > 100 µM (inactive) | 19.1 µM (inactive) | – | > 100 µM | > 100 µM (inactive) | > 100 µM (inactive) | > 100 µM (inactive) | > 100 µM (inactive) | > 100 µM (inactive) | > 100 µM (inactive) | > 100 µM (inactive) | 17.8 µM (inactive)
Cc1ccc(C)n1-c1ccccc1C1C=Cn2c(=O)oc3c(OC(C)C)c(OC(C)C)c(O)c1c32 (configuration not stated) | 5.13 µM (inactive) | – | 28.1 µM (inactive) | > 100 µM (inactive) | 14.2 µM (inactive) | 33.3 µM (inactive) | 90.4 µM (inactive) | 22.3 µM (inactive) | 4.9 µM (inactive) | 14.4 µM (inactive) | 56 µM (inactive) | 15.7 µM | 8.57 µM (inactive) | 22 µM (inactive) | 7.33 µM (inactive) | 37.3 µM (inactive) | 4.67 µM (inactive) | 32.6 µM (inactive) | 13.9 µM (inactive) | 8.75 µM (inactive)
CC(C)[Si](Oc1ccc(CC2N(C(=O)c3ccc([N+](=O)[O-])cc3)C(CCc3ccccc3)CC2(C)C=O)cc1)(C(C)C)C(C)C (configuration not stated) | 12.9 µM (inactive) | – | – | 27.7 µM (inactive) | > 100 µM (inactive) | 7.05 µM (inactive) | 61.1 µM (inactive) | – | > 100 µM (inactive) | – | 32 µM (inactive) | 5.6 µM | > 100 µM (inactive) | > 100 µM (inactive) | 86.7 µM (inactive) | 17.2 µM (inactive) | – | > 100 µM (inactive) | > 100 µM (inactive) | –
COC(=O)Cc1cccc2c(=O)c(S(=O)(=O)NC(=O)Nc3ccc(Cl)cc3)c(-c3ccccc3)oc12 | 29.2 µM (inactive) | > 100 µM (inactive) | > 100 µM (inactive) | > 100 µM (inactive) | 13.5 µM (inactive) | 67.9 µM (inactive) | > 100 µM (inactive) | 32.7 µM (inactive) | – | 30.2 µM (inactive) | > 100 µM (inactive) | 8.75 µM | 54.6 µM (inactive) | 24.3 µM (inactive) | – | > 100 µM (inactive) | 4.3 µM (inactive) | > 100 µM (inactive) | 34.4 µM (inactive) | –
Cc1cc(C)nc(NS(=O)(=O)c2ccc(NC(=O)c3cccc4c(Nc5ccc(S(N)(=O)=O)cc5)c5ccccc5nc34)cc2)n1 | – | – | 5.46 µM (inactive) | 15.2 µM (inactive) | 19.4 µM (inactive) | > 66.5 µM (inactive) | – | 44.1 µM (inactive) | 12.8 µM (inactive) | 19.1 µM (inactive) | – | > 100 µM | 14.8 µM (inactive) | > 100 µM (inactive) | 10.2 µM (inactive) | 50.8 µM (inactive) | 7.85 µM (inactive) | 35.1 µM (inactive) | 26.6 µM (inactive) | 7.4 µM (inactive)
COc1ccc(/N=C2\S/C(=N\C(=N\c3ccccc3)SCc3ccccc3)N(c3ccccc3)\C2=N/c2ccc(OC)cc2)cc1 | > 100 µM (inactive) | > 100 µM (inactive) | > 100 µM (inactive) | – | – | – | – | – | > 100 µM (inactive) | > 100 µM (inactive) | > 100 µM (inactive) | > 100 µM | > 100 µM (inactive) | – | > 100 µM (inactive) | > 100 µM (inactive) | > 100 µM (inactive) | – | > 100 µM (inactive) | > 100 µM (inactive)
Cc1ccc(C2c3c(n(C)c(=O)n(C)c3=O)OC(N(C)C)(N(C)C)C2(F)F)cc1 (configuration not stated) | > 100 µM (inactive) | – | > 100 µM (inactive) | > 100 µM (inactive) | > 100 µM (inactive) | > 100 µM (inactive) | > 100 µM (inactive) | > 100 µM (inactive) | > 100 µM (inactive) | > 100 µM (inactive) | – | > 100 µM | > 100 µM (inactive) | > 100 µM (inactive) | > 100 µM (inactive) | > 100 µM (inactive) | > 100 µM (inactive) | 51.4 µM (inactive) | > 100 µM (inactive) | –

Reference: ChEMBL document CHEMBL1201862, “PubChem BioAssay data set” (2004)
